Data reported in patent US20190078143A1, “METHOD FOR TREATING NEURODEVELOPMENTAL DISORDERS” (New York University, priority 2017, published 2019).
“Also recorded” adds a separate entry of the source.

Assays:
[1] = system: MIA offspring; assay: Behavioral assays (USV, marble burying, open field, three-chamber sociability) in offspring of poly(I:C)-injected dams; type: in vivo, mouse; conditions: poly(I:C)-injected mothers pre-treated with vancomycin, oral gavage every two days from 7 days before breeding
Protocol: Mice were mated overnight and females were checked daily for the presence of seminal plugs, noted as embryonic day 0.5. On E12.5, pregnant female mice were weighed and injected with a single dose (20 mg/kg; i.p.) of poly(I:C) (Sigma Aldrich) or PBS vehicle. Each dam was returned to its cage and left undisturbed until the birth of its litter. All pups remained with the mother until weaning on postnatal day 21-28 (P21-P28), at which time mice were group housed at a maximum of 5 per cage with same-sex littermates. […]
On P9, both male and female offspring mice were removed from the nest and habituated to the testing room for 30 min. […] Ultrasonic vocalizations (USVs) were detected for 3 min using an UltraSoundGateCM16/CMPA microphone (AviSoft) in the sound attenuation chamber under stable temperature and light control, and recorded with SAS Prolab software (AviSoft). USVs were measured between 33-125 kHz using Ultravox software (Noldus Information Technology, USA). Due to the unreliability of automated USV scoring, all pup USV calls were counted manually and plotted on the y-axis. […]
8-12-week-old male mice were tested for social behavior using the three-chamber social approach paradigm. […] Experimental mice were given 10 min to explore both chambers and measured for approach behavior as interaction time (i.e. sniffing, approach) with targets in each chamber (within 2 cm). […]

[2] = system: cortical patches (SATB2) in primary somatosensory cortex; assay: Cortical patches by SATB2 immunohistochemistry in adult MIA offspring brains; type: in vivo, mouse; conditions: offspring of poly(I:C)-injected mothers pre-treated with vancomycin
Protocol: (§1) Mice were mated overnight and females were checked daily for the presence of seminal plugs, noted as embryonic day 0.5. On E12.5, pregnant female mice were weighed and injected with a single dose (20 mg/kg; i.p.) of poly(I:C) (Sigma Aldrich) or PBS vehicle. Each dam was returned to its cage and left undisturbed until the birth of its litter. All pups remained with the mother until weaning on postnatal day 21-28 (P21-P28), at which time mice were group housed at a maximum of 5 per cage with same-sex littermates.
For co-housing experiments, age-matched SFB-absent mice (from Jackson Laboratory) were co-housed with SFB-present mice (from Taconic Biosciences) in sterilized cages for two weeks at a ratio of 2:3, with unrestricted access to food and water. For SFB-gavaging experiments, four fecal pellets of SFB mono-colonized mice (provided by Dan Littman) were dissolved in 20 ml sterile PBS and filtered through a 100 μm cell strainer. […]
Adult male mice were perfused and fixed with 4% paraformaldehyde in PBS for overnight at 4° C. […] The cortical malformation images were analyzed using Image J software. […]
Cortical patches were identified as cortical regions devoid of SATB2 expression. The size of the cortical patches in the S1 was calculated using Zen software (Carl Zeiss). […] SATB2 positive cells were quantified manually.

[3] = system: Th17 cells in the small intestine; assay: Flow cytometry of ileal CD4+ T cells for IL-17a and RORγt in poly(I:C)-treated dams; type: in vivo, mouse; conditions: poly(I:C)-injected pregnant dams, E14.5, compared to control group
Protocol: (§2) For co-housing experiments, age-matched SFB-absent mice (from Jackson Laboratory) were co-housed with SFB-present mice (from Taconic Biosciences) in sterilized cages for two weeks at a ratio of 2:3, with unrestricted access to food and water. For SFB-gavaging experiments, four fecal pellets of SFB mono-colonized mice (provided by Dan Littman) were dissolved in 20 ml sterile PBS and filtered through a 100 μm cell strainer. 200 μl of fecal suspensions were gavaged via oral route to 4 week-old female Jackson mice. Control mice were gavaged with PBS. The SFB colonization was tested on day 7 following co-housing or SFB-gavaging. For ablation of intestinal bacteria, Taconic-derived female mice were orally gavaged with vancomycin hydrochloride (Fisher) (2.5 mg/kg) every two days, starting 7 days prior to breeding. Mouse fecal pellets were collected and stored at −80° C. before and after vancomycin treatments.
For mononuclear cell isolations, both mesenteric fat tissues and Peyer's patches were carefully removed from intestinal tissues. […]
Mononuclear cells were incubated with or without 50 ng/ml phorbol myristate acetate (PMA) (Sigma) and 500 ng/ml ionomycin (Sigma) in the presence of GolgiStop (BD) in complete T cell media at 37° C. for 5 h. […] All data were re-analyzed using FlowJo (Tree Star).

[4] = system: IL-17a; assay: Maternal plasma IL-17a ELISA after poly(I:C) at E12.5; type: in vivo, mouse; conditions: poly(I:C)-injected pregnant dams, 48 hrs after poly(I:C) at E12.5, compared to control group
Protocol: as §1
as §2, with “For ablation of intestinal bacteria, Taconic-derived female mice were orally gavaged with vancomycin hydrochloride (Fisher) (2.5 mg/kg) every two days, starting 7 days prior to breeding. Mouse fecal pellets were collected and stored at −80° C. before and after vancomycin treatments.” left out
IL-17a, TNF-α, IFN-β, IL-1β and IL-23 levels were measured according to the manufacturer's protocol (BioLegend). IL-6 and IFN-γ levels were measured according to the manufacturer's protocol (eBioscience).

[5] = system: segmented filamentous bacteria (SFB); assay: 16S rRNA qPCR of SFB levels in mouse fecal samples; type: in vivo; conditions: B6 mice before/after vancomycin treatment
Protocol: as §2
Bacterial genomic DNA was isolated from the fecal pellets of mice with phenol-chloroform extraction. qPCR was performed to quantify relative abundance of SFB, human commensal bacteria or total bacteria using group specific 16S rDNA primers (Table 3, FIG. 16). Undetected qPCR values from non-colonized samples were replaced with a Ct value of 40 for the purpose of comparison.

[6] = system: segmented filamentous bacteria (SFB); conditions: commensal bacteria in laboratory mice, general statement; cited from earlier work

With `CN[C@H](CC(C)C)C(=O)N[C@H]1C(=O)N[C@@H](CC(N)=O)C(=O)N[C@H]2C(=O)N[C@H]3C(=O)N[C@H](C(=O)N[C@H](C(=O)O)c4cc(O)cc(O)c4-c4cc3ccc4O)[C@H](O)c3ccc(c(Cl)c3)Oc3cc2cc(c3O[C@@H]2O[C@H](CO)[C@@H](O)[C@H](O)[C@H]2O[C@H]2C[C@](C)(N)[C@H](O)[C@H](C)O2)Oc2ccc(cc2Cl)[C@H]1O` [vancomycin] the “development of behavioral abnormalities in MIA offspring (USV, marble burying, open field center time, % interaction)” value [1] was “prevented induction of behavioral abnormalities; also recorded: prevented development of all four behavioral abnormalities”, the “cortical patches in adult offspring” value [2] was “failed to develop cortical patches” and the “proportion of Th17 cells in the small intestine” value [3] was “decrease in the proportion of Th17 cells”. The “levels of IL-17a in the maternal plasma” value [4] was “reduction in the levels of IL-17a”, the “intestinal colonization by SFB (qPCR of fecal samples)” value [5] was “severely reduced” and the “susceptibility of SFB to vancomycin” value [6] was “susceptible”.
